# Measurements from ChEMBL document CHEMBL5257082, “Bacterial GTPases as druggable targets to tackle antimicrobial resistance” (Bioorg Med Chem Lett, 2023).
# Tests used:
# Escherichia coli = experiment: Antibacterial activity against Escherichia coli; format: functional
# Staphylococcus aureus [1] = experiment: Antibacterial activity against Staphylococcus aureus; format: functional
# Staphylococcus aureus [2] = experiment: Antibacterial activity against methicillin-resistant Staphylococcus aureus; format: functional
# Staphylococcus aureus [3] = experiment: Antibacterial activity against vancomycin-resistant Staphylococcus aureus; format: functional
# Staphylococcus aureus [4] = experiment: Antibacterial activity against linezolid-nonsusceptible Staphylococcus aureus; format: functional
# [5] = Intrinsic clearance in BALB/c mouse at 24 mg/kg, iv; format: ADME, organism-based; details: in vivo
# Bacillus subtilis = experiment: Antibacterial activity against Bacillus subtilis; format: functional
# Enterococcus faecalis = experiment: Antibacterial activity against Enterococcus faecalis; format: functional
# Streptococcus pyogenes = experiment: Antibacterial activity against Streptococcus pyogenes; format: functional
# Streptococcus pneumoniae = experiment: Antibacterial activity against Streptococcus pneumoniae; format: functional
# [6] = biological target: T1, Cell division protein FtsZ (Staphylococcus aureus, UniProt P0A031); experiment: Inhibition of Staphylococcus aureus FTsZ GTPase activity
# T1 sequence (P0A031 whole entry): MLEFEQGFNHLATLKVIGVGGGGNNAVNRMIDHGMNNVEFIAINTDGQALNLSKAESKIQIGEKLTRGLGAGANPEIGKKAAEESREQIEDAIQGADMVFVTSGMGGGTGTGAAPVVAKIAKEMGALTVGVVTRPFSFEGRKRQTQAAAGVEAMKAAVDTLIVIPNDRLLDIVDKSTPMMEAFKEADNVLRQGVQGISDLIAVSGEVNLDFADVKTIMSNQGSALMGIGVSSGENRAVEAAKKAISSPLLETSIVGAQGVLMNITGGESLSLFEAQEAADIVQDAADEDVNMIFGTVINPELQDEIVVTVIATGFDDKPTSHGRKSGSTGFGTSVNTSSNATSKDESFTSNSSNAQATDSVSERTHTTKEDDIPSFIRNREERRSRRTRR
# Enterococcus faecium = experiment: Antibacterial activity against Enterococcus faecium; format: functional
# Neisseria gonorrhoeae = experiment: Antibacterial activity against Neisseria gonorrhoeae; format: functional
# Haemophilus influenzae = experiment: Antibacterial activity against Haemophilus influenzae; format: functional
# Acinetobacter baumannii = experiment: Antibacterial activity against Acinetobacter baumannii; format: functional
# Pseudomonas aeruginosa = experiment: Antibacterial activity against Pseudomonas aeruginosa; format: functional
# Klebsiella pneumoniae = experiment: Antibacterial activity against Klebsiella pneumoniae; format: functional
# Neisseria meningitidis = experiment: Antibacterial activity against Neisseria meningitidis; format: functional
# Micrococcus luteus = experiment: Antibacterial activity against Micrococcus luteus; format: functional
MIC (Escherichia coli),MIC (Staphylococcus aureus [1]),SMILES,MIC (Staphylococcus aureus [2]),MIC (Enterococcus faecalis),further results
> 200 µg/mL,> 25 µg/mL,Cc1cc(Cl)ccc1OC(C)C(=O)Nc1ccc(C(=O)Nc2ccccc2C(=O)O)cc1 (centres undefined),–,–,–
> 200 µg/mL,> 50 µg/mL,COc1ccc(/C=C(\C#N)C(=O)Nc2cccc(C(=O)O)c2)cc1OC(=O)c1cccc2ccccc12,–,–,–
> 200 µg/mL,> 50 µg/mL,O=C(O)c1[nH]c2ccc(Cl)cc2c1CC(=O)N1CCN(c2ccc(C(F)(F)F)cc2)CC1,–,–,–
32 µg/mL,2 µg/mL,CO[C@@H]1[C@H](O)[C@@H](OC)[C@H](O[C@@H](C)[C@@H](O)/C=C/C=C/C=C/C(=O)[C@@H](C)[C@@H](O)[C@H](C)C2C/C=C/C=C/C=C/[C@H](O)C(=O)/C(C)=C/C=C/C(C)=C/[C@@H](O)/C(C)=C/CC(=O)O2)O[C@@H]1C (some centres undefined),–,32 µg/mL,MIC (Acinetobacter baumannii): 32 µg/mL; MIC (Pseudomonas aeruginosa): 32 µg/mL; MIC (Klebsiella pneumoniae): > 128 µg/mL
–,2 µg/mL,CC/C=C/[C@@H](OC(N)=O)[C@@H](Cl)[C@H](O)CC(=O)[C@@H](O)[C@H](O)C(C)/C(Cl)=C/C=C/C=C(C)/C=C/C=C/C(=O)O[C@@H]1CC(C(=O)O)CC[C@@H]1O (some centres undefined),–,–,MIC (Acinetobacter baumannii): > 32 µg/mL; MIC (Pseudomonas aeruginosa): > 32 µg/mL

# Further lines, the compound ahead of its results:
SMILES,MIC (Escherichia coli),MIC (Staphylococcus aureus [1]),MIC (Staphylococcus aureus [2]),MIC (Enterococcus faecalis),further results
CN1CCC(C(=O)NC(=O)c2c(F)ccc(OCc3nc4cc(C(F)(F)F)cnc4s3)c2F)CC1,–,–,2 µg/mL,–,MIC (Staphylococcus aureus [3]): 2 µg/mL; MIC (Staphylococcus aureus [4]): 2 µg/mL; CL [5]: 9.4 mL/min/kg
NC(=O)c1c(F)ccc(OCc2nc3cc(Cl)cnc3s2)c1F,> 64 µg/mL,–,1 µg/mL,> 64 µg/mL,MIC (Bacillus subtilis): 1 µg/mL; MIC (Streptococcus pyogenes): > 64 µg/mL; MIC (Streptococcus pneumoniae): > 64 µg/mL; IC50 [6]: 0.15 µM; CL [5]: 55.11 mL/min/kg
C/C=C\C=C\[C@@H]1C[C@](O)([C@H](CC)C(=O)NC/C=C/C=C(\C)[C@H](OC)[C@H](C)C2O[C@H](/C=C/C=C/C=C(\C)C(=O)c3c(O)cc[nH]c3=O)[C@H](O)[C@@H]2O)[C@H](O)[C@H](O)C1(C)C (some centres undefined),> 128 µg/mL,> 32 µg/mL,–,> 32 µg/mL,MIC (Enterococcus faecium): 2 µg/mL; MIC (Neisseria gonorrhoeae): 0.06 µg/mL; MIC (Haemophilus influenzae): 4 µg/mL
CC(=O)O[C@H]1C[C@@]2(C)[C@@H](C[C@@H](O)[C@H]3[C@@]4(C)CC[C@@H](O)[C@@H](C)[C@@H]4CC[C@@]32C)/C1=C(\CCC=C(C)C)C(=O)O [FUSIDIC ACID],> 32 µg/mL,–,0.25 µg/mL,2 µg/mL,MIC (Streptococcus pyogenes): 16 µg/mL; MIC (Neisseria meningitidis): 0.25 µg/mL; MIC (Micrococcus luteus): 0.5 µg/mL
